Test results taken from PubChem BioAssay AID330 (DTP/NCI, 2004).
Values joined by “and” are separate entries in the source; they are usually repeats but may differ in a detail not shown here. Identical values can stand only once. Toxic doses and inconclusive results are not listed. The calls were made as follows: active = survival T/C of 150% or more; inactive = T/C below 125% in these data.

System: P388 leukemia ip, CD2F1 mice, survival T/C
Experiment: NCI In Vivo Anticancer Drug Screen. Data for tumor model P388 Leukemia (intraperitoneal) in CD2F1 (CDF1) mice
Details: endpoint: median survival time, higher = longer survival
In short: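 Mice carrying the transplanted tumor received test compound or vehicle. Survival was recorded in each group, and the value is the treated-group measurement divided by that of the vehicle-treated control group.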

[1] = dose: 50.0 mg/kg/injection, schedule: Q01DX009 (ip), vehicle: Klucel (hydroxypropylcellulose) (HPC)
[2] = dose: 100.0 mg/kg/injection, schedule: Q01DX009 (ip), vehicle: Klucel (hydroxypropylcellulose) (HPC)
[3] = dose: 200.0 mg/kg/injection, schedule: Q01DX009 (ip), vehicle: Klucel (hydroxypropylcellulose) (HPC)
[4] = dose: 25.0 mg/kg/injection, schedule: Q01DX005 (ip), vehicle: saline with Tween-80
[5] = dose: 50.0 mg/kg/injection, schedule: Q01DX005 (ip), vehicle: saline with Tween-80
[6] = dose: 100.0 mg/kg/injection, schedule: Q01DX005 (ip), vehicle: saline with Tween-80
[7] = dose: 50.0 mg/kg/injection, schedule: Q01DX005 (ip), vehicle: Klucel (hydroxypropylcellulose) (HPC)
[8] = dose: 60.0 mg/kg/injection, schedule: Q01DX005 (ip), vehicle: saline with Tween-80
[9] = dose: 120.0 mg/kg/injection, schedule: Q01DX005 (ip), vehicle: saline with Tween-80
[10] = dose: 50.0 mg/kg/injection, schedule: Q01DX005 (ip), vehicle: Klucel + Tween-80
[11] = dose: 100.0 mg/kg/injection, schedule: Q01DX005 (ip), vehicle: Klucel + Tween-80
[12] = dose: 100.0 mg/kg/injection, schedule: Q01DX005 (ip), vehicle: Klucel (hydroxypropylcellulose) (HPC)
[13] = dose: 200.0 mg/kg/injection, schedule: Q01DX005 (ip), vehicle: Klucel (hydroxypropylcellulose) (HPC)
[14] = dose: 50.0 mg/kg/injection, schedule: Q01DX005 (ip), vehicle: saline
[15] = dose: 100.0 mg/kg/injection, schedule: Q01DX005 (ip), vehicle: saline
[16] = dose: 200.0 mg/kg/injection, schedule: Q01DX005 (ip), vehicle: saline with Tween-80

Measured: T/C

COC(=O)C1CC(OC(C)=O)C2OC(C)(C)OC2C1OC(C)=O (stereo unspecified)
inactive: [1] 100 % of control | [2] 99 % of control | [3] 100 % of control

COc1nc2cc3c(cc2n2cccc12)oc1ccccc13
inactive: [4] 95 % of control | [5] 96 % of control | [6] 102 % of control

CC1=CC(=O)c2c(O)c3c(c(O)c2C1=O)C1C(O)C(C3=O)C23C(=O)c4c(O)c(C)cc(O)c4C(O)=C2C(=O)CC(O)C13 (stereo unspecified)
inactive: dose: 1.5 mg/kg/injection, schedule: Q01DX005 (ip), vehicle: Klucel (hydroxypropylcellulose) (HPC) 101 % of control | dose: 3.0 mg/kg/injection, schedule: Q01DX005 (ip), vehicle: Klucel (hydroxypropylcellulose) (HPC) 115 % of control | dose: 6.0 mg/kg/injection, schedule: Q01DX005 (ip), vehicle: Klucel (hydroxypropylcellulose) (HPC) 115 % of control | dose: 12.0 mg/kg/injection, schedule: Q01DX005 (ip), vehicle: Klucel (hydroxypropylcellulose) (HPC) 113 % of control | dose: 12.5 mg/kg/injection, schedule: Q01DX005 (ip), vehicle: Klucel (hydroxypropylcellulose) (HPC) 108 % of control | dose: 25.0 mg/kg/injection, schedule: Q01DX005 (ip), vehicle: Klucel (hydroxypropylcellulose) (HPC) 105 % of control | [7] 105 % of control

CCOC(=O)c1nnc2cc(-c3ccccc3)nn2c1-c1ccccc1
inactive: [8] 101 % of control | [9] 95 % of control

O=c1c2cc(O)c(O)cc2oc2cc(O)c(C3OC(CO)C(O)C(O)C3O)c(O)c12 (stereo unspecified)
inactive: dose: 100.0 mg/kg/injection, schedule: Q01DX001 (ip), vehicle: saline 101 % of control | dose: 400.0 mg/kg/injection, schedule: Q01DX001 (ip), vehicle: saline 101 % of control

CC(C)CC(=O)CC(C)(O)CCC(=O)c1ccoc1 (stereo unspecified)
inactive: [4] 98 % of control | [5] 104 % of control | [6] 102 % of control

CCOP(=O)(O)OCC
inactive: dose: 100.0 mg/kg/injection, schedule: Q04DX003 (ip), vehicle: Klucel (hydroxypropylcellulose) (HPC) 93 % of control | dose: 200.0 mg/kg/injection, schedule: Q04DX003 (ip), vehicle: Klucel (hydroxypropylcellulose) (HPC) 89 % of control | dose: 400.0 mg/kg/injection, schedule: Q04DX003 (ip), vehicle: Klucel (hydroxypropylcellulose) (HPC) 96 % of control

CC1(C)[C@H]2Cc3c(ccc4c3C(=O)OC4=O)[C@@H]1C2
inactive: [10] 107 % of control | [11] 112 % of control

OCc1c(-c2ccc(Cl)cc2)c(-c2ccc(Cl)cc2)c2n1CCC2
inactive: [7] 92 % of control | [12] 92 % of control | [13] 92 % of control

Cc1cc(C2CCCCC2)n(O)c(=O)c1
inactive: dose: 25.0 mg/kg/injection, schedule: Q01DX005 (ip), vehicle: saline 100 % of control | [14] 99 % of control | [15] 106 % of control

[Cl][Cu][Cl].[NH-]C1CCCC2CCC[N-]C12 (stereo unspecified)
inactive: dose: 12.5 mg/kg/injection, schedule: Q04DX002 (ip), vehicle: saline with Tween-80 106 % of control

COc1cncn2nc(C)nc12
inactive: dose: 60.0 mg/kg/injection, schedule: Q01DX005 (ip), vehicle: saline 100 % of control | dose: 120.0 mg/kg/injection, schedule: Q01DX005 (ip), vehicle: saline 99 % of control | dose: 240.0 mg/kg/injection, schedule: Q01DX005 (ip), vehicle: saline 93 % of control

OCCN1CCN(CCCN2c3cc(Cl)ccc3Sc3sccc32)CC1
inactive: [7] 92 % of control | [14] 100 % of control | [12] 90 % of control | [15] 106 % of control

N=C(N)SCc1nc(-c2ccc(Cl)cc2)no1
inactive: dose: 6.25 mg/kg/injection, schedule: Q01DX009 (ip), vehicle: saline with Tween-80 109 % of control | dose: 6.25 mg/kg/injection, schedule: Q01DX009 (ip), vehicle: saline 98 % of control | dose: 12.5 mg/kg/injection, schedule: Q01DX009 (ip), vehicle: saline with Tween-80 106 % of control | dose: 12.5 mg/kg/injection, schedule: Q01DX009 (ip), vehicle: saline 104 % of control and 106 % of control | dose: 25.0 mg/kg/injection, schedule: Q01DX009 (ip), vehicle: saline with Tween-80 106 % of control | dose: 25.0 mg/kg/injection, schedule: Q01DX009 (ip), vehicle: saline 108 % of control and 111 % of control | dose: 50.0 mg/kg/injection, schedule: Q01DX009 (ip), vehicle: saline with Tween-80 113 % of control | dose: 50.0 mg/kg/injection, schedule: Q01DX009 (ip), vehicle: saline 110 % of control and 121 % of control and 123 % of control

CC(C)C(C(F)C(=O)OCc1ccccc1)N(Cc1ccccc1)Cc1ccccc1 (stereo unspecified)
inactive: [7] 98 % of control | [12] 91 % of control | [13] 89 % of control

Cc1cccc(N=Nc2ccc(N=Nc3c(O)ccc4ccccc34)cc2C)c1
inactive: [1] 97 % of control | [2] 100 % of control | [3] 100 % of control

NCCC(N)=O
inactive: dose: 100.0 mg/kg/injection, schedule: Q01DX009 (ip), vehicle: saline 100 % of control | dose: 100.0 mg/kg/injection, schedule: Q04DX003 (ip), vehicle: saline sonified 109 % of control | dose: 200.0 mg/kg/injection, schedule: Q01DX009 (ip), vehicle: saline 95 % of control | dose: 200.0 mg/kg/injection, schedule: Q04DX003 (ip), vehicle: saline sonified 100 % of control | dose: 400.0 mg/kg/injection, schedule: Q01DX009 (ip), vehicle: saline 100 % of control | dose: 400.0 mg/kg/injection, schedule: Q04DX003 (ip), vehicle: saline sonified 100 % of control

CS(C)(=O)=Nc1ccc(F)cc1
inactive: dose: 100.0 mg/kg/injection, schedule: Q01DX001 (ip), vehicle: saline with Tween-80 99 % of control | dose: 200.0 mg/kg/injection, schedule: Q01DX001 (ip), vehicle: saline with Tween-80 99 % of control | dose: 400.0 mg/kg/injection, schedule: Q01DX001 (ip), vehicle: saline with Tween-80 99 % of control

Cc1cc(O)cc2c1c(=O)c1ccccc1n2C
inactive: [8] 100 % of control | [9] 100 % of control | dose: 240.0 mg/kg/injection, schedule: Q01DX005 (ip), vehicle: saline with Tween-80 96 % of control

SC(Cc1nc2ccccc2[nH]1)c1nc2ccccc2[nH]1 (stereo unspecified)
inactive: dose: 100.0 mg/kg/injection, schedule: Q01DX001 (ip), vehicle: Klucel + Tween-80 93 % of control | dose: 200.0 mg/kg/injection, schedule: Q01DX001 (ip), vehicle: Klucel + Tween-80 93 % of control | dose: 400.0 mg/kg/injection, schedule: Q01DX001 (ip), vehicle: Klucel + Tween-80 100 % of control

COc1ccc2sc3cccc(NCCN(C)C)c3c(=O)c2c1
inactive: dose: 12.5 mg/kg/injection, schedule: Q01DX005 (ip), vehicle: saline with Tween-80 112 % of control | [4] 108 % of control | [5] 100 % of control and 95 % of control | [6] 98 % of control and 99 % of control | [16] 106 % of control | dose: 400.0 mg/kg/injection, schedule: Q01DX005 (ip), vehicle: saline with Tween-80 98 % of control

COc1ccc(/C=C/C(=O)C(CN(C)C)CN(C)C)cc1
inactive: dose: 1.56 mg/kg/injection, schedule: Q01DX005 (ip), vehicle: saline 109 % of control | dose: 3.12 mg/kg/injection, schedule: Q01DX005 (ip), vehicle: saline 96 % of control | dose: 6.25 mg/kg/injection, schedule: Q01DX005 (ip), vehicle: saline 106 % of control

CSc1ccccc1N1C(=O)CSC1=S
inactive: [1] 108 % of control | [2] 96 % of control | [3] 89 % of control

COc1ccc(-n2c(N)c(C#N)c3c(c2=S)CCCC3)cc1
inactive: [10] 100 % of control | [11] 104 % of control | dose: 200.0 mg/kg/injection, schedule: Q01DX005 (ip), vehicle: Klucel + Tween-80 95 % of control

CCOC(=O)C(C)(C)S(=O)Nc1ccccc1 (stereo unspecified)
inactive: dose: 60.0 mg/kg/injection, schedule: Q01DX005 (ip), vehicle: Klucel (hydroxypropylcellulose) (HPC) 99 % of control | dose: 120.0 mg/kg/injection, schedule: Q01DX005 (ip), vehicle: Klucel (hydroxypropylcellulose) (HPC) 99 % of control | dose: 240.0 mg/kg/injection, schedule: Q01DX005 (ip), vehicle: Klucel (hydroxypropylcellulose) (HPC) 102 % of control

c1ccc(CNc2nnc3nc(-c4ccccc4)c(-c4ccccc4)nn23)cc1
inactive: [5] 117 % of control | [6] 114 % of control | [16] 105 % of control

COc1ccc2c(c1)C(NCCCCCCNc1cc(C)[n+](C)c3ccc(OC)cc13)=CC(C)N2C (stereo unspecified)
inactive: [4] 113 % of control | [5] 118 % of control
